Structures can show the parent of a compound that is named as a salt.
Tested on: T1, JNK
T1 construct: Human JNK2α2 assay contains 1 nM enzyme; Human JNK1α1 assay contains 2 nM enzyme
Test: JNK Assay in vitro (phosphorylation of GST-ATF2 with [γ-33P] ATP)
Type: biochemical, Human
Details: IC50 affinity values; JNK isoform (JNK1α1, JNK2α2 or JNK3) not stated; Km concentrations of ATP and substrate; 30° C. for 30 min
Procedure: JNK activity was measured by phosphorylation of GST-ATF2 (19-96) with [-^33P] ATP. […] Human JNK2α2 assay contains 1 nM enzyme, 1 μM ATF2, 8 μM ATP with 1 uCi [γ-^33P] ATP. Human JNK1α1 assay contains 2 nM enzyme, 1 μM ATF2, 6 μM ATP with 1 μCi [γ-^33P] ATP. Human JNK3 (Upstate Biotech #14-501M) assay contains 2 nM enzyme, 1 μM ATF2, 4 μM ATP with 1 μCi [γ-^33P] ATP. The enzyme assay was carried out in the presence or absence of several compound concentrations. JNK and compound were pre-incubated for 10 min., followed by initiation of the enzymatic reaction by adding ATP and the substrate. The reaction mixture was incubated at 30° C. for 30 min. At the end of incubation, the reaction was terminated by transferring 25 μl of the reaction mixture to 150 μl of 10% glutathione Sepharose® slurry (Amersham #27-4574-01) containing 135 mM EDTA. The reaction product was captured on the affinity resin, and washed on a filtration plate (Millipore, MABVNOB50) with phosphate buffered saline for six times to remove free radionucleotide. The incorporation of ^33P into ATF2 was quantified on a microplate scintillation counter (Packard Topcount). Compound inhibition potency on JNK was measured by IC50 value generated from ten concentration inhibition curves fitted into the 3-parameter model: % inhibition=Maximum/(1+(IC50/[Inhibitor])^slope). Data were analyzed on Microsoft Excel for parameter estimation.

SMILES | IC50
C=C(C)c1cccc2c1ccn2-c1ccnc(N[C@H]2CC[C@H](C(=O)N3CCn4c(C)cnc4C3)CC2)n1 [Compound 10, {4-[4-(4-Isopropenyl-indol-1-yl)-pyrimidin-2-ylamino]-cyclohexyl}-(3-methyl-5,6-dihydro-8H-imidazo[1,2-a]pyrazin-7-yl)-methanone] | 65 nM
Cc1cnc2n1CCN(C(=O)[C@H]1CC[C@H](Nc3nccc(-n4ccc5c(OC(F)F)cccc54)n3)CC1)C2 [Compound 11, {4-[4-(4-Difluoromethoxy-indol-1-yl)-pyrimidin-2-ylamino]-cyclohexyl}-(3-methyl-5,6-dihydro-8H-imidazo[1,2-a]pyrazin-7-yl)-methanone] | 97 nM
CS(=O)(=O)CCCOc1cccc2c1cnn2-c1ccnc(N[C@H]2CC[C@H](C(=O)N3CCn4cc(C(F)(F)F)nc4C3)CC2)n1 [Compound 13, (4-{4-[4-(3-Methanesulfonyl-propoxy)-indazol-1-yl]-pyrimidin-2-ylamino}-cyclohexyl)-(2-trifluoromethyl-5,6-dihydro-8H-imidazo[1,2-a]pyrazin-7-yl)-methanone] | 12 nM
O=C([C@H]1CC[C@H](Nc2nccc(-n3ncc4c(OCC5CCS(=O)(=O)C5)cccc43)n2)CC1)N1CCn2ccnc2C1 (some centres unmarked) [Compound 15, (5,6-Dihydro-8H-imidazo[1,2-a]pyrazin-7-yl)-(4-{4-[4-(1,1-dioxo-tetrahydro-1λ6-thiophen-3-ylmethoxy)-indazol-1-yl]-pyrimidin-2-ylamino}-cyclohexyl)-methanone] | 12 nM
Cc1nnc2n1CCN(C(=O)[C@H]1CC[C@H](Nc3nccc(-n4ccc5c(OCCCS(C)(=O)=O)cccc54)n3)CC1)C2 [Compound 23, (4-{4-[4-(3-Methanesulfonyl-propoxy)-indol-1-yl]-pyrimidin-2-ylamino}-cyclohexyl)-(3-methyl-5,6-dihydro-8H-[1,2,4]triazolo[4,3-a]pyrazin-7-yl)-methanone] | 32 nM
O=C([C@H]1CC[C@H](Nc2nccc(-n3ccc4c(OCC5CCS(=O)(=O)C5)cccc43)n2)CC1)N1CCn2cnnc2C1 (some centres unmarked) [Compound 24, (5,6-Dihydro-8H-[1,2,4]triazolo[4,3-a]pyrazin-7-yl)-(4-{4-[4-(1,1-dioxo-tetrahydro-1λ6-thiophen-3-ylmethoxy)-indol-1-yl]-pyrimidin-2-ylamino}-cyclohexyl)-methanone] | 17 nM
C=C(C)c1cccc2c1ccn2-c1ccnc(N[C@H]2CC[C@H](C(=O)N3CCn4cnnc4C3)CC2)n1 [Compound 25, (5,6-Dihydro-8H-[1,2,4]triazolo[4,3-a]pyrazin-7-yl)-{4-[4-(4-isopropenyl-indol-1-yl)-pyrimidin-2-ylamino]-cyclohexyl}-methanone] | 191 nM
C=C(C)c1cccc2c1ccn2-c1ccnc(N[C@H]2CC[C@H](C(=O)N3CCn4c(C)nnc4C3)CC2)n1 [Compound 26, {4-[4-(4-Isopropenyl-indol-1-yl)-pyrimidin-2-ylamino]-cyclohexyl}-(3-methyl-5,6-dihydro-8H-[1,2,4]triazolo[4,3-a]pyrazin-7-yl)-methanone] | 174 nM
O=C([C@H]1CC[C@H](Nc2nccc(-n3ccc4c(OC(F)F)cccc43)n2)CC1)N1CCn2cnnc2C1 [Compound 27, {4-[4-(4-Difluoromethoxy-indol-1-yl)-pyrimidin-2-ylamino]-cyclohexyl}-(5,6-dihydro-8H-[1,2,4]triazolo[4,3-a]pyrazin-7-yl)-methanone] | 269 nM
Cc1nnc2n1CCN(C(=O)[C@H]1CC[C@H](Nc3nccc(-n4ccc5c(OC(F)F)cccc54)n3)CC1)C2 [Compound 28, {4-[4-(4-Difluoromethoxy-indol-1-yl)-pyrimidin-2-ylamino]-cyclohexyl}-(3-methyl-5,6-dihydro-8H-[1,2,4]triazolo[4,3-a]pyrazin-7-yl)-methanone] | 228 nM
Cc1cccc2c1nnn2-c1ccnc(N[C@H]2CC[C@H](C(=O)N3CCn4cc(C(F)(F)F)nc4C3)CC2)n1 [Compound 33, {4-[4-(4-Methyl-benzotriazol-1-yl)-pyrimidin-2-ylamino]-cyclohexyl}-(2-trifluoromethyl-5,6-dihydro-8H-imidazo[1,2-a]pyrazin-7-yl)-methanone] | 58 nM
Cc1cccc2c1nnn2-c1ccnc(N[C@H]2CC[C@H](C(=O)N3CCn4cnnc4C3)CC2)n1 [Compound 34, (5,6-Dihydro-8H-[1,2,4]triazolo[4,3-a]pyrazin-7-yl)-{4-[4-(4-methyl-benzotriazol-1-yl)-pyrimidin-2-ylamino]-cyclohexyl}-methanone] | 59 nM
Cc1cccc2c1nnn2-c1ccnc(N[C@H]2CC[C@H](C(=O)N3CCn4c(C)nnc4C3)CC2)n1 [Compound 35, {4-[4-(4-Methyl-benzotriazol-1-yl)-pyrimidin-2-ylamino]-cyclohexyl}-(3-methyl-5,6-dihydro-8H-[1,2,4]triazolo[4,3-a]pyrazin-7-yl)-methanone] | 38 nM
O=C([C@H]1CC[C@@H](Nc2nccc(-n3nnc4c(C(F)(F)F)cccc43)n2)CC1)N1CCn2cnnc2C1 [Compound 37, (5,6-Dihydro-8H-[1,2,4]triazolo[4,3-a]pyrazin-7-yl)-{4-[4-(4-trifluoromethyl-benzotriazol-1-yl)-pyrimidin-2-ylamino]-cyclohexyl}-methanone] | 180 nM
CC(C)(O)c1cccc2c1nnn2-c1ccnc(N[C@H]2CC[C@H](C(=O)N3CCn4cnnc4C3)CC2)n1 [Compound 38, (5,6-Dihydro-8H-[1,2,4]triazolo[4,3-a]pyrazin-7-yl)-(4-{4-[4-(1-hydroxy-1-methyl-ethyl)-benzotriazol-1-yl]-pyrimidin-2-ylamino}-cyclohexyl)-methanone] | 49 nM
Cc1nnc2n1CCN(C(=O)[C@H]1CC[C@H](Nc3nccc(-n4nnc5c(C(C)(C)O)cccc54)n3)CC1)C2 [Compound 39, (4-{4-[4-(1-Hydroxy-1-methyl-ethyl)-benzotriazol-1-yl]-pyrimidin-2-ylamino}-cyclohexyl)-(3-methyl-5,6-dihydro-8H-[1,2,4]triazolo[4,3-a]pyrazin-7-yl)-methanone] | 31 nM
Cc1cnc2n1CCN(C(=O)[C@H]1CC[C@H](Nc3nccc(-n4nnc5c(C(C)(C)O)cccc54)n3)CC1)C2 [Compound 41, (4-{4-[4-(1-Hydroxy-1-methyl-ethyl)-benzotriazol-1-yl]-pyrimidin-2-ylamino}-cyclohexyl)-(3-methyl-5,6-dihydro-8H-imidazo[1,2-a]pyrazin-7-yl)-methanone] | 52 nM
O=C([C@H]1CC[C@H](Nc2nccc(-c3cnc4c(C(F)(F)F)cccn34)n2)CC1)N1CCn2cnnc2C1 [Compound 42, (5,6-Dihydro-8H-[1,2,4]triazolo[4,3-a]pyrazin-7-yl)-{4-[4-(8-trifluoromethyl-imidazo[1,2-a]pyridin-3-yl)-pyrimidin-2-ylamino]-cyclohexyl}-methanon] | 205 nM
Cc1nnc2n1CCN(C(=O)[C@H]1CC[C@H](Nc3nccc(-c4cnc5c(C(F)(F)F)cccn45)n3)CC1)C2 [Compound 43, (3-Methyl-5,6-dihydro-8H-[1,2,4]triazolo[4,3-a]pyrazin-7-yl)-{4-[4-(8-trifluoromethyl-imidazo[1,2-a]pyridin-3-yl)-pyrimidin-2-ylamino]-cyclohexyl}-methanone] | 234 nM

Tested on: not given
Test: not given
Details: not given

SMILES | melting point
C=C(C)c1cccc2c1ccn2-c1ccnc(N[C@H]2CC[C@H](C(=O)N3CCn4c(C)cnc4C3)CC2)n1 (as salt: HCl) [Compound 10, {4-[4-(4-Isopropenyl-indol-1-yl)-pyrimidin-2-ylamino]-cyclohexyl}-(3-methyl-5,6-dihydro-8H-imidazo[1,2-a]pyrazin-7-yl)-methanone] | 220 to 224.9 °C
Cc1cnc2n1CCN(C(=O)[C@H]1CC[C@H](Nc3nccc(-n4ccc5c(OC(F)F)cccc54)n3)CC1)C2 (as salt: HCl) [Compound 11, {4-[4-(4-Difluoromethoxy-indol-1-yl)-pyrimidin-2-ylamino]-cyclohexyl}-(3-methyl-5,6-dihydro-8H-imidazo[1,2-a]pyrazin-7-yl)-methanone] | 190 to 195 °C
Cc1nnc2n1CCN(C(=O)[C@H]1CC[C@H](Nc3nccc(-n4ccc5c(OCCCS(C)(=O)=O)cccc54)n3)CC1)C2 (as salt: HCl) [Compound 23, (4-{4-[4-(3-Methanesulfonyl-propoxy)-indol-1-yl]-pyrimidin-2-ylamino}-cyclohexyl)-(3-methyl-5,6-dihydro-8H-[1,2,4]triazolo[4,3-a]pyrazin-7-yl)-methanone] | 178 to 180 °C
O=C([C@H]1CC[C@H](Nc2nccc(-n3ccc4c(OCC5CCS(=O)(=O)C5)cccc43)n2)CC1)N1CCn2cnnc2C1 (some centres unmarked) (as salt: HCl) [Compound 24, (5,6-Dihydro-8H-[1,2,4]triazolo[4,3-a]pyrazin-7-yl)-(4-{4-[4-(1,1-dioxo-tetrahydro-1λ6-thiophen-3-ylmethoxy)-indol-1-yl]-pyrimidin-2-ylamino}-cyclohexyl)-methanone] | 215 to 220 °C

Reference: US20110301170A1, “Inhibitors of JNK” (priority 2010, published 2011)
